Results published in patent US7795226B2, “Control of radiation injury” (Biotempt B.V., priority 2006, dated 2010).

Test system: cell-cycle marker pCDG and auxin-responsive marker DR5::GUS
Test: Arabidopsis thaliana seedling cell-cycle analysis (GUS markers)
Conditions: for identified as useful peptide for treatment of radiation injury from cell-cycle studies in plants and in vitro proliferation studies: Results from Examples 9 and 10
Description: To further study anti-cell-cycle activity of various oligopeptides, a proliferation experiment in Arabidopsis Thaliana seedlings was performed. The aim was to test a group of 140 oligopeptides of varying length for their effect on plant marker gene expression during rapid growth when avid cell division occurs.
The peptides were re-suspended in 1× Phosphate Buffer Saline (PBS) pH 8 to a final concentration of 5 mg/ml. The obtained solutions were then divided through 96-well round bottom plates (Corning Incorporated) at 40 microliters per well. Plates were stored before use at […] for four days. Seeds of Arabidopsis thaliana ecotype Ws-0 were surface sterilized in 2% commercial bleach (Gloria) for ten minutes and washed five times with sterile MQ water. The seeds were then re-suspended with 0.1% agar and plated on MS20 plates supplemented with 80 mg/l Kanamycin.
The plates were placed at […] for two nights and then transferred to a climate room at […] and a 16/8 hours photoperiod. After four days of growth, the seedlings were transferred to 96-well plates containing the peptide solutions (four seedlings per well) and incubated for four and eight hours.
For this experiment, Arabidopsis homozygous seedlings harboring two reporter genes fused to GUS were used. […] After incubation with the compounds, the seedlings were stained for GUS. The staining reaction was performed in 100 mM sodium phosphate buffer (pH 7.0) that contained 10 mM EDTA, 10% DMSO, 0.1% Triton X-100, 2 mM X-Gluc, 0.5 mM K3Fe(CN)6 and 0.5 mM K4Fe(CN)6 at […] for 16 hours. […] Seedlings were fixed and cleared in chloral hydrate solution for detailed microscopic observation and photography under a microscope equipped with DIC optics.
Peptides were tested for an effect on marker gene expression on rapidly growing Arabidopsis young seedlings. This was monitored by changes on GUS distribution in different organs: root, root-hypocotyl transition zone and cotyledons.

Row | Substance | identified as useful peptide for treatment of radiation injury from cell-cycle studies in plants and in vitro proliferation studies | effect on cell-cycle marker (pCDG) and auxin-responsive marker (DR5::GUS) (in words) (seedlings incubated four and eight hours, 5 mg/ml peptide solution)
1 | AFTV (CRP-derived peptide) | useful | 
2 | APSL (human beta-catenin-derived peptide) | useful | 
3 | AVAL | useful | 
4 | CPRGVNP | useful | 
5 | CPVQ (tetramer peptide) | useful | 
6 | DINGFLPAL | useful | less consistent and time-dependent effect
7 | EALE (tetramer peptide) | useful | 
8 | EMFQ (tetramer peptide) | useful | 
9 | EPPE (tetramer peptide) | useful | 
10 | EVVR (tetramer peptide) | useful | 
11 | FSYA (CRP-derived peptide) | useful | 
12 | FVLS (CRP-derived peptide) | useful | 
13 | FWVD (CRP-derived peptide) | useful | 
14 | GVLC (human beta-catenin-derived peptide) | useful | 
15 | ITTL (human beta-catenin-derived peptide) | useful | 
16 | LCFL | useful | 
17 | LGTL | useful | 
18 | LHNL | useful | 
19 | LNEAL (pentamer peptide) | useful | 
20 | LNTI (human beta-catenin-derived peptide) | useful | 
21 | LQAV (tetramer peptide) | useful | 

Row | Substance | identified as useful peptide for treatment of radiation injury from cell-cycle studies in plants and in vitro proliferation studies | effect on cell-cycle marker (pCDG) and auxin-responsive marker (DR5::GUS) (in words) (seedlings incubated four and eight hours, 5 mg/ml peptide solution)
22 | LQGA (tetramer peptide) | useful | 
23 | LTCDDP | useful | 
24 | MGGTWA | useful | 
25 | MTEV (tetramer peptide) | useful | 
26 | NLIN (human beta-catenin-derived peptide) [NUN] | useful | 
27 | NMWD (CRP-derived peptide) | useful | 
28 | PGCP | useful | 
29 | QALG (human beta-catenin-derived peptide) | useful | 
30 | QLLG (human beta-catenin-derived peptide) | useful | 
31 | QPLAPLVG | useful | 
32 | QVVC (tetramer peptide) | useful | 
33 | RLPG | useful | 
34 | RVLQ (tetramer peptide) | useful | 
35 | SPIE (human beta-catenin-derived peptide) | useful | 
36 | TLAVE (beta-hCG-derived peptide) | useful | 
37 | VCNYRDV | useful | 
38 | VEGNL (pentamer peptide) | useful | 
39 | VGGI | useful | 
40 | VGQL (tetramer peptide) | useful | 
41 | VLPAPLQ (septamer peptide) | useful | 
42 | YAIT (human beta-catenin-derived peptide) | useful | 
